Assay results from patent US10703735B2, “4-phenyl-coumarin derivatives, processes for their preparation and uses thereof for the treatment of cancer” (Lead Discovery Center GmbH, priority 2018, dated 2020).

Experiments:
[1] = molecular target: mitochondrial RNA-polymerase (POLRMT) (Mus musculus, UniProt Q8BKF1); assay: Homogeneous TR-FRET assay for mitochondrial transcription activity; type: biochemical; settings: homogeneous TR-FRET assay according to Example 4; read-out: mitochondrial transcription activity (IC-50)
Summary of the method: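 Mouse POLRMT with TFAM and TFB2M transcribes linearized pUC-LSP template after 10 min compound preincubation (10 μM final or dilution series), started with 500 μM each nucleotide, 2 h at RT. EDTA/high-salt stop; RNA product detected by hybridized Eu/ATTO647N probe pair, TR-FRET read at 665 nm (340 nm excitation).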

[2] = system: mitochondrial transcription (7S RNA) in HeLa cells; assay: Quantitative real time-PCR assay of inhibition of mitochondrial transcription (7S RNA) in HeLa cells; type: cell-based; settings: Homo sapiens, 4 h incubation, Example 5, read-out: cellular qPCR assay IMT (IC-50)
Description: Quantitative real-time PCR (qRT-PCR), based on the TaqMan™ (Thermo Fisher Scientific, Waltham Mass.) technology, was carried out essentially as described in (Heid et al. 1996). HeLa cells were plated one day before compound treatment in RPMI medium supplemented with 10% Fetal Calf Serum and 2 mM L-glutamine. Cells were incubated with dilution series of compounds or vehicle (DMSO) for 4 h, prior to harvest and extraction of the RNA using the RNeasy Mini Kit (Qiagen, Hilden D), according to the manufacturer's instructions. RNA concentrations were measured spectroscopically, using a NanoDrop-2000 (Thermo Fisher Scientific, Waltham Mass.) and normalized prior to cDNA synthesis, using a ‘High-Capacity cDNA Reverse Transcription Kit’ (Thermo Fisher Scientific, Waltham Mass.). qRT-PCR was carried out using the ‘TaqMan Fast Advance Master Mix’ (Thermo Fisher Scientific, Waltham Mass.) on a 7500 Fast Real-Time PCR machine (Applied Biosystems, Foster City Calif.)
For these measurements, three genes were used to compare the effect of the scrutinized compounds in relation to their concentration. The POLRMT-gene was used to detect potential influences on nuclear transcription. Mitochondrial transcription in vivo was monitored by measurements 7S RNA. The TBP (TATA-box binding protein) gene was employed as the control (housekeeping gene) during qRT-PCR. The short-lived mitochondrial 7S RNA, which is not post-transcriptionally stabilized, allowed us to monitor rapid changes in mitochondrial transcription activity following compound addition. Biological triplicates were analyzed using the comparative CT Method (ΔΔCt) method (Bubner et al. 2004) and reported as Rq % values (Rq=Relative quantification=2-ΔΔCt).

Chain of mitochondrial RNA-polymerase (POLRMT) (Q8BKF1 42-1207): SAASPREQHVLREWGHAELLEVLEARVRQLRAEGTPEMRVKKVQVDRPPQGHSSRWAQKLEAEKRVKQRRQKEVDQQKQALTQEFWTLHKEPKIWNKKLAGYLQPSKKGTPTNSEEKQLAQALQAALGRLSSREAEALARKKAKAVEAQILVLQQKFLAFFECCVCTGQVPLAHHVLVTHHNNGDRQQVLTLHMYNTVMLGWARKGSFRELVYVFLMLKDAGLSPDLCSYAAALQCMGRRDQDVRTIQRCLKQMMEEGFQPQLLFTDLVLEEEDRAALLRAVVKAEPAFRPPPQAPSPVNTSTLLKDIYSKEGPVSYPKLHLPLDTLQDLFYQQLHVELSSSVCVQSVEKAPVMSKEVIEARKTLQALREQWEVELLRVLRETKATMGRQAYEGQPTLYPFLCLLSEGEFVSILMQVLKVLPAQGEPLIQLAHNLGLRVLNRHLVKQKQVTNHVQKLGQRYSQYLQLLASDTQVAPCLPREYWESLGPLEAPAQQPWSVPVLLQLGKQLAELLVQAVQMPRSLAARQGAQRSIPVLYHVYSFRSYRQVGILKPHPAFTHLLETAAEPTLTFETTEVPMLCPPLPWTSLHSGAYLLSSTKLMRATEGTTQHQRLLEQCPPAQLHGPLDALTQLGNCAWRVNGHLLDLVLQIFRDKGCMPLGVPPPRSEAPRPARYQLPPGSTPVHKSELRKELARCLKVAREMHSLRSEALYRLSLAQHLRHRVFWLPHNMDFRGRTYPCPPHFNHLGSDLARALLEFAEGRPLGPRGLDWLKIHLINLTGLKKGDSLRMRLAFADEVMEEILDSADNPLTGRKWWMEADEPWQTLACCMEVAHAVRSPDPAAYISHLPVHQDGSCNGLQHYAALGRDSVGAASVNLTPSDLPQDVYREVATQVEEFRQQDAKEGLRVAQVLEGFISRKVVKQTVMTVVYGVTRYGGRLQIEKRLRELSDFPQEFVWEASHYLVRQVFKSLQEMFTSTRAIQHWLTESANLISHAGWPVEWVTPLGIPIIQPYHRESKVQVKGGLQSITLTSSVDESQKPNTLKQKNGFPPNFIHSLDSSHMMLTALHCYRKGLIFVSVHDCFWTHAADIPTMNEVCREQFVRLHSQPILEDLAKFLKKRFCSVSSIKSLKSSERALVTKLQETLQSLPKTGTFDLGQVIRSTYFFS

Structure (SMILES)	IC50 [1]	IC50 [2]
CCOC(=O)C(C)(C)Oc1ccc2c(-c3ccccc3)cc(=O)oc2c1 [Compound 32, ethyl 2-methyl-2-(2-oxo-4-phenyl-chromen-7-yl)oxy-propanoate]	100 to 1000 nM	10 to 50 nM
CCNC(=O)C(C)Oc1ccc2c(-c3ccccc3)cc(=O)oc2c1 (stereo not shown) [Compound 30, N-ethyl-2-(2-oxo-4-phenyl-chromen-7-yl)oxy-propanamide]	1000 to 10000 nM	50 to 500 nM
CC(Oc1ccc2c(-c3ccccc3)cc(=O)oc2c1)C(=O)N(C)C (stereo not shown) [Compound 2, N,N-dimethyl-2-(2-oxo-4-phenyl-chromen-7-yl)oxy-propanamide]	100 to 1000 nM	10 to 50 nM
CC(Oc1ccc2c(-c3ccccc3)cc(=O)oc2c1)C(=O)N1CCCC1 (stereo not shown) [Compound 31, 7-(1-methyl-2-oxo-2-pyrrolidin-1-yl-ethoxy)-4-phenyl-chromen-2-one]	100 to 1000 nM	50 to 500 nM
CCOC(=O)C(C)Oc1ccc2c(-c3ccc(OC)cc3)cc(=O)oc2c1 (stereo not shown) [Compound 65, ethyl 2-[4-(4-methoxyphenyl)-2-oxo-chromen-7-yl]oxypropanoate]	1000 to 10000 nM	500 to 10000 nM
CC(Oc1ccc2c(-c3ccccc3)cc(=O)oc2c1)C(=O)N1CCCC(C#N)C1 (stereo not shown) [Compound 19, 1-[2-(2-oxo-4-phenyl-chromen-7-yl)oxypropanoyl]piperidine-3-carbonitrile]	< 20 nM	< 10 nM
CC(Oc1ccc2c(-c3ccccc3)cc(=O)oc2c1)C(=O)OC(C)(C)C (stereo not shown) [Compound 1, tert-butyl 2-(2-oxo-4-phenyl-chromen-7-yl)oxypropanoate]	100 to 1000 nM	< 10 nM
CCOC(=O)C(C)Oc1ccc2c(-c3cccc(F)c3)cc(=O)oc2c1 (stereo not shown) [Compound 7, ethyl 2-[4-(3-fluorophenyl)-2-oxo-chromen-7-yl]oxypropanoate]	20 to 100 nM	10 to 50 nM
CCOC(=O)C(C)Oc1ccc2c(-c3ccccc3)cc(=O)oc2c1 (stereo not shown) [Compound 52, ethyl 2-(2-oxo-4-phenyl-chromen-7-yl)oxypropanoate]	100 to 1000 nM	50 to 500 nM
CC(C)NC(=O)C(C)Oc1ccc2c(-c3ccccc3)cc(=O)oc2c1 (stereo not shown) [Compound 12, N-isopropyl-2-(2-oxo-4-phenyl-chromen-7-yl)oxy-propanamide]	100 to 1000 nM	50 to 500 nM
COC(=O)C1CCCN(C(=O)C(C)Oc2ccc3c(-c4ccccc4)cc(=O)oc3c2)C1 (stereo not shown) [Compound 15, methyl 1-[2-(2-oxo-4-phenyl-chromen-7-yl)oxypropanoyl]piperidine-3-carboxylate]	100 to 1000 nM	50 to 500 nM
CC(C)OC(=O)C(C)Oc1ccc2c(-c3ccccc3)cc(=O)oc2c1 (stereo not shown) [Compound 53, isopropyl 2-(2-oxo-4-phenyl-chromen-7-yl)oxypropanoate]	20 to 100 nM	< 10 nM
CCOC(=O)[C@@H](C)Oc1ccc2c(-c3ccccc3)cc(=O)oc2c1 [Compound 33, ethyl (2R)-2-(2-oxo-4-phenyl-chromen-7-yl)oxypropanoate]	100 to 1000 nM	< 10 nM
C[C@@H](Oc1ccc2c(-c3ccccc3)cc(=O)oc2c1)C(=O)N(C)C [Compound 34, (2R)-N,N-dimethyl-2-(2-oxo-4-phenyl-chromen-7-yl)oxy-propanamide]	100 to 1000 nM	10 to 50 nM
